Experimental data published in patent publication US11261192B2, “Substituted 1,2-dihydro-3H-pyrazolo[3,4-D]pyrimidin-3-ones” (Recurium IP Holdings, LLC, priority 2018, dated 2022).

Columns and labels:
[1] = tested on: H23 cells; test: H23 Cellular Proliferation Assay (CellTiter-Glo); assay type: cell-based; conditions: Homo sapiens, NCI-H23, 96 h, 4 days, read-out: H23 CTG IC50
Method: H23 Cellular Proliferation Assay
Cells were treated with compounds diluted in DMSO and a 9 point 5-fold serial dilutions. Plates were placed in 37° C., 5% CO2 for to incubate for 4 days. Before they were developed by adding 100 μL of CellTiter-Glo reagent (Promega) to the assay plate, plates were shaken briefly for 2 mins and allowed to incubate at rt for 10 mins. The plates are read with a M5e plate reader according to CellTiter-Glo protocol. The GraphPad Prism software is used to get IC50 values.

[2] = target: Wee1 kinase (Homo sapiens, UniProt P30291); test: Wee1 Binding Assay (FRET); conditions: FRET, Wee1 kinase 2 nM, tracer 178 50 nM, 60 min at RT; read-out: Wee1 enzymatic IC50
Method: Wee 1 kinase was determined by using Fluorescence Resonance Energy Transfer (FRET) assay. […] The plate was shaken for 30 seconds, incubated for 60 min at RT, and recorded on fluorescence plate reader.

Wee1 kinase, sequence (P30291 whole entry): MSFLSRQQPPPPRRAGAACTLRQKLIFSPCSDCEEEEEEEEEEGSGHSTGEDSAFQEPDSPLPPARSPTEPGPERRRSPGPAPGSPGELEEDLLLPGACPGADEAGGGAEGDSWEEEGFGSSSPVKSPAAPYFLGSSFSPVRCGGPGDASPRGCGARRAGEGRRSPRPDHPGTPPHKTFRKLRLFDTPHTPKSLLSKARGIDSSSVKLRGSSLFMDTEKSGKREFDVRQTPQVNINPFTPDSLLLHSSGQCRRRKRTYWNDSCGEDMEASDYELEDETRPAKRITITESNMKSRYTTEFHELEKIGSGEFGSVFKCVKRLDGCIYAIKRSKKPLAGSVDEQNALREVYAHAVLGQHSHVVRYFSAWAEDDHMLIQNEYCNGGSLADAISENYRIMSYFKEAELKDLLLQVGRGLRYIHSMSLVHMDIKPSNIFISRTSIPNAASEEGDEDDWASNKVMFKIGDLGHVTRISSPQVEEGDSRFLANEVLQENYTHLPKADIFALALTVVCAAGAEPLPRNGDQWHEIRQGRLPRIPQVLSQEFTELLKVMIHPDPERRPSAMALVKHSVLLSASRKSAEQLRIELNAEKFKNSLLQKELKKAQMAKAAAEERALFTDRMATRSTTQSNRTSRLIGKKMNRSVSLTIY

- IC50 [2]: 0.01 to 0.1 µM
Structure (SMILES): C=CCn1c(=O)c2cnc(Nc3ccc(N4CCN(C)CC4)cc3)nc2n1-c1ccc2c(n1)C(=O)N(C)C2 [Example 33, 2-allyl-1-(6-methyl-7-oxo-6,7-dihydro-5H-pyrrolo[3,4-b]pyridin-2-yl)-6-((4-(4-methylpiperazin-1-yl)phenyl)amino)-1,2-dihydro-3H-pyrazolo[3,4-d]pyrimidin-3-one]
- IC50 [1]: > 1 µM
